Laboratory results taken from paper PMC3572853 (ACS medicinal chemistry letters, 2012).

Legend:
[1] = tested on: Ki-67; test: Ki-67 levels in MDA-MB-231 cells
[2] = tested on: PADs 1–4; test: kinact/KI determination with purified enzyme, all PADs tested; assay type: biochemical; details: for kinact/KI: for all of the PADs tested (PADs 1–4)
[3] = target: T1, PAD1 (Homo sapiens, UniProt Q9ULC6); test: kinact/KI determination with purified enzyme, PAD1; assay type: biochemical
T1 sequence (Q9ULC6 1-663): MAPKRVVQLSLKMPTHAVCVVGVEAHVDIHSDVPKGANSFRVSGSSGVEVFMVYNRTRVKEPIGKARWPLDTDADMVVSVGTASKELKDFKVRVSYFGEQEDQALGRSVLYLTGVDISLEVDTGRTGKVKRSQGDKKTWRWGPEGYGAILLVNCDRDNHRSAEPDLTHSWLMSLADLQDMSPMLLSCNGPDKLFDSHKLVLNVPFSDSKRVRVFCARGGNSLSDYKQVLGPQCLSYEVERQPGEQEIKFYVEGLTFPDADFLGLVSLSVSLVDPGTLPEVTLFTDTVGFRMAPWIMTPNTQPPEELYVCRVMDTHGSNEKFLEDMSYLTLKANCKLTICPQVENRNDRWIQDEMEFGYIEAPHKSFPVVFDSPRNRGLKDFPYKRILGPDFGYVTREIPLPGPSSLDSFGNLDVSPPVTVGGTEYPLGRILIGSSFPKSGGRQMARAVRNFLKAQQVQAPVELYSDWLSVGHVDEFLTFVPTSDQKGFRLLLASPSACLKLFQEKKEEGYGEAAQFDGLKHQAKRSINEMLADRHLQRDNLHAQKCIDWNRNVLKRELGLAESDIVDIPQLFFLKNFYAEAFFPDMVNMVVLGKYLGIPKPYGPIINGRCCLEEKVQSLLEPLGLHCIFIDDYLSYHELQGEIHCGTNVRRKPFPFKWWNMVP

[4] = maximum tolerable dose; assay type: in vivo; details: mice, per os
[5] = tested on: MDA-MB-231 cells; test: cell viability and cell number in MDA-MB-231 cells; assay type: cell-based; details: MDA-MB-231 cells, 100, 200 and 400 µM, 96 h after administration
[6] = pharmacokinetics in mice, IV and IP injection; assay type: in vivo; details: 10 mg/kg
[7] = tested on: collagen induced arthritis (CIA) model; details: cited from earlier work
[8] = tested on: mouse model of ulcerative colitis; details: cited from earlier work
[9] = mice, 100 mg/kg daily by i.p. for up to 56 days; cited from earlier work
[10] = tested on: caspase 3 activity; test: caspase 3 activity in MDA-MB-231 cells; details: MDA-MB-231 cells, 100, 200 and 400 µM, 96 h

Row | Structure (SMILES) | kinact/KI [2] [M⁻¹ s⁻¹] | Ki-67 levels [1] | cell number [5] | cell viability [5] | caspase 3 activity [10] | other results
1 | CC(=O)N[C@H]1[C@@H](O[C@@H]2O[C@H](CC(O)[C@H]3O[C@@H](n4ccc(=O)[nH]c4=O)[C@H](O)[C@@H]3O)[C@H](O)[C@H](O)[C@H]2NC(=O)/C=C/CC(C)C)O[C@H](CO)[C@@H](N)[C@@H]1O (stereo partly shown) [tunicamycin] | – | a decrease in Ki-67 levels | – | – | – | –
2 | N=C(CCl)NCCCC(NC(=O)c1ccccc1)C(=O)O [L-Cl-amidine-OH] | – | – | – | – | – | PAD inhibition in words ([2]; PADs 1–4): poor PAD inhibitor
3 | N=C(CF)NCCC[C@@H](NC(=O)c1ccccc1)C(N)=O [D-F-amidine] | – | – | – | – | – | kinact/KI [3]: 20.3 M⁻¹ s⁻¹
4 | N=C(CCl)NCCC[C@H](NC(=O)c1ccccc1)C(N)=O [L-Cl-amidine, N-α-Benzoyl-N5-(2-Chloro-1-Iminoethyl)-l-Ornithine Amide] | – | no significant effect on Ki-67 levels | significantly decreased cell number at a concentration of 400 µM | significantly decreasing cell viability at concentrations of 200 and 400 µM | significant increase in activity at a concentration of 400 µM | body weight change ([4]; 100 mg/kg (group 5), 4 days (96 h)): significant weight loss; body weight change ([4]; 150 mg/kg (group 6), 4 days (96 h)): significant weight loss; observable toxicity ([4]; group 6 (150 mg/kg)): notably shaking, anxious, hunching and breathing heavily from 1 to 4 h after treatment; time to complete degradation ([6]; IP): ≤ 4 h; time to complete degradation ([6]; IV): ≤ 2 h; disease severity [7]: reduces disease severity; disease severity [8]: reduces disease severity; signs of toxicity [9]: no observable signs of toxicity
5 | N=C(CCl)NCCC[C@@H](NC(=O)c1ccccc1)C(N)=O [D-Cl-amidine] | – | no significant effect on Ki-67 levels | significantly decreased cell number at a concentration of 400 µM | significantly decreasing cell viability at concentrations of 200 and 400 µM | significant increase in activity at a concentration of 400 µM | body weight change ([4]; varying doses up to 150 mg/kg): maintained healthy weight gains
6 | N=C(CCl)NCCC[C@@H](NC(=O)c1ccccc1)C(=O)NCC(=O)O [D-Cl-amidine-Gly] | < 3.83 | – | – | – | – | –
7 | N=C(CF)NCCC[C@@H](NC(=O)c1ccccc1C(=O)O)C(N)=O [D-o-F-amidine] | – | – | only a small decrease in cell number at a concentration of 400 µM | no effect on cell viability | did not result in an increase in caspase 3 activity | body weight change ([4]; varying doses up to 150 mg/kg): maintained healthy weight gains

The next lines start with results.

Row | kinact/KI [2] [M⁻¹ s⁻¹] | Structure (SMILES) | Ki-67 levels [1] | cell number [5] | cell viability [5] | caspase 3 activity [10] | other results
8 | < 3.83 | N=C(CCl)NCCC[C@@H](NC(=O)c1ccccc1)C(=O)O [D-Cl-amidine-OH] | – | – | – | – | –
9 | < 2.5 | N=C(CCl)NCC[C@@H](NC(=O)c1ccccc1)C(N)=O [D-Cl2-amidine] | – | – | – | – | –
10 | < 2.5 | N=C(CCl)NCCCC[C@@H](NC(=O)c1ccccc1)C(N)=O [D-Cl4-amidine] | – | – | – | – | –
